Data taken from patent US20130123358A1, “Metabolic Benefits to Butyrate as a Chronic Diet Supplement” (priority 2009, published 2013).
Like-named read-outs stand apart in the source and are kept apart here.

Key:
[1] = tested on: IRS-1 and Akt phosphorylation; assay: Insulin signaling immunoblot in gastrocnemius muscle after insulin injection; type: in vivo, mouse; details: butyrate 5% w/w in HFD 13 weeks, 30 min after insulin 0.75 U/kg
From the text: Fresh fat and muscles were collected and frozen in liquid nitrogen. The whole cell lysate protein was extract in lysis buffer with sonication and analyzed in western blot as described elsewhere (16). Antibodies were used in study of myoglobin (sc-25607, Santa Cruz), PGC-1 (sc-13068, Santa Cruz), Tubulin (ab7291, Abcam), myosin (M8421, Sigma), pAMPK (Thr 172, #2531, Cell signaling) and p-p38 (sc-7975, Santa Cruz). To detect multiple signals from one membrane, the membrane was stripped with a stripping buffer. Intensity of the immunoblot signal was quantified using a computer program, ImageJ 1.37v (NIH). The mean values of results from three experiments (6 mice each group) were presented. The antibodies to PGC-1α and UCP-1 were from Dr. Thomas Gettys at Pennington Biomedical Research Center, Baton Rouge, La.
Tail vein blood was used for the glucose assay after 16 hr fasting during the period of HFD feeding. […] The insulin was determined at 16 weeks on HFD in fasting condition with Lincoplex kit (#MADPK-71k-03, Linco Research Inc., St. Charles, Mo.). […] After an overnight fast, blood glucose and insulin were measured and used to determine insulin sensitivity through HOMA IR (IR=fasting insulin […] X fasting glucose mg/dL÷405). […] FIG. 2F illustrates the degree of the blot signal in the panel 2E, by quantifying the signal and normalizing with protein loading. **P<0.001 (n=2).

[2] = Butyrate concentration in plasma; type: in vivo; details: mouse, oral, 5 % w/w in HFD, butyrate 5% w/w in HFD for 16 weeks
Procedure: The serum fatty acids including butyrate were examined using a protocol described elsewhere (18), and as described below in Example 10. The fatty acids in feces were determined using a protocol as described by Schwarz (19). Triglyceride and cholesterol were measured in the whole blood with the Cardiochek portable test system.
The butyrate concentration was analyzed in plasma collected from the butyrate and control groups in mice fed HFD for 16 weeks. In a fasted condition (overnight fast), the butyrate concentration was 7.23±0.93 μg/ml in the butyrate group and 5.71±0.38 μg/ml in the control. […] Data are presented as means±SE (n=6). * P<0.05; ** P<0.001.

HDAC = assay: Histone deacetylase assay on muscle nuclear extracts of treated mice; type: in vivo, mouse; details: butyrate 5% w/w in HFD, 16 weeks on HFD, muscle nuclear extracts
Procedure: Histone deacetylase assay were conducted according to the instruction from the manufacturer (#17-320, Upstate). Briefly, 10 ug of muscle nuclear extract (as an enzyme) was incubated with [3H]-acetyl CoA (#TRK688, Amersham) radio labeled histone H4 peptide (25,000 CPM, as a substrate) at 37° C. for 12 hours by shaking Released [3H]-acetate was measured using a scintillation counter. The nuclear extract was prepared according to a protocol described elsewhere (17). The muscle tissues were collected and snap-frozen in liquid nitrogen within 2 min of cervical dislocation of mice. Tissue samples were stored at −80° C. until further processing. The muscle sample of 200˜300 mg was cut into small pieces on dry ice and homogenized in 1 ml of lysate buffer. After centrifugation at 10,000 rpm for 1 minute at 4° C., the nucleus was pelleted and collected. After being washed, the nucleus pellet was treated with extraction buffer. The supernatant was collected for nuclear protein after centrifugation at 14,000 rpm for 5 minutes at 4° C.
Without wishing to be bound by this theory, one activity of butyrate could be related to inhibition of HDAC. Sodium butyrate inhibits the class I and class II histone deacetylases (HDACs). To test this possibility, HDAC activity was examined in the skeletal muscle of mice at 16 weeks on HFD (FIG. 7G). The assay was conducted with the nuclear extracts of muscle samples. […]

[3] = tested on: skeletal muscle mitochondrial function; assay: Fatty acid oxidation and gene expression in skeletal muscle; type: in vivo, mouse; details: butyrate 5% w/w in HFD 13 weeks
Procedure: Total RNA was extracted from frozen tissues (kept at −80° C.) using Tri-Reagent (T9424, Sigma) as described elsewhere (16). Taqman RT-PCR primer and probe were used to determine mRNA for PGC-1α (Mm00447183_m1), UCP-1 (Mm00494069_m1), PPARδ (Mm01305434_m1) and CPT1b (Mm00487200_m1). The reagents were purchased from Applied Biosystems (Foster City, Calif.). Mouse ribosome 18S rRNA_s1 (without intron-exon junction) was used as an internal control. Reaction was conducted with 7900 HT Fast real time PCR System (Applied Biosystems, Foster City, Calif.).
Mitochondrial function was examined in the skeletal muscle tissue and L6 muscle cells under butyrate treatment. Fatty acid oxidation was monitored in the […] with ^14C-labeled palmitic acid.
Vastus laterais muscle and blood samples were collected from mice at 13 weeks on HFD (18 weeks in age) and examined for fatty acid oxidation, gene expression, and blood lipids. FIG. 7A illustrates the fatty acid oxidation in muscle, measured as a fold change in ^14C-labeled CO2.
In addition, relative fold change in mRNA was used to indicate gene expression of PGC-1α target genes, such as CPT-1b (carnitine palmitoyltransferase-1b) and COX-I (cytochrome c oxidase I), and of the nuclear receptor PPARδ. In FIG. 7C, mitochondrial DNA of COX I was determined by Sybr green RT-PCR. The fatty acid oxidation was associated with expression of PGC-1α target genes, such as CPT-1b (carnitine palmitoyltransferase-1b) and COX-I (cytochrome c oxidase I) (9). Expression of these two genes was increased in the skeletal muscle of butyrate-treated mice (FIGS. 7B and 7C). The nuclear receptor PPARδ promotes fatty acids oxidation in skeletal muscle (29).

CCCC(=O)[O-].[Na+] [sodium butyrate]
threonine 308 phosphorylation of Akt [1]: increased | tyrosine 632 (Y632) phosphorylation of IRS-1 [1]: increased | concentration at 16 weeks ([2]; fed, read-out: butyrate concentration in plasma, fed condition): 9400 ± 1360 ng/mL | concentration at 16 weeks ([2]; overnight fast, read-out: butyrate concentration in plasma, fasted condition): 7230 ± 930 ng/mL | HDAC activity in skeletal muscle, reduction (HDAC): 50% | fatty acid oxidation in muscle, increase in 14C-labeled CO2 ([3]; 14C-labeled palmitic acid): 200% | CPT-1b expression in skeletal muscle ([3]; mRNA): increased | PPARδ expression in skeletal muscle ([3]; mRNA): also increased | COX-I expression in skeletal muscle ([3]; mitochondrial DNA by Sybr green RT-PCR): increased
